#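 48-hour exposure; five concentrations; linearly interpolated endpoints. At the TGI there is no net growth.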
# How the values were obtained:
# Assay in all cases: growth of human tumour cells (NCI), 48 h
# NCI/ADR-RES ovarian = test system: NCI/ADR-RES ovarian
# HOP-92 NSCLC = test system: HOP-92 NSCLC
# UACC-257 melanoma = test system: UACC-257 melanoma
# MOLT-4 leukemia = test system: MOLT-4 leukemia
# SR leukemia = test system: SR leukemia
# SK-MEL-2 melanoma = test system: SK-MEL-2 melanoma
# HCT-15 colon = test system: HCT-15 colon
# SNB-19 CNS = test system: SNB-19 CNS
# MCF7 breast = test system: MCF7 breast
# HCT-116 colon = test system: HCT-116 colon
# SK-MEL-5 melanoma = test system: SK-MEL-5 melanoma
# K-562 leukemia = test system: K-562 leukemia
# SF-539 CNS = test system: SF-539 CNS
# HT29 colon = test system: HT29 colon
# 786-0 renal = test system: 786-0 renal
# OVCAR-8 ovarian = test system: OVCAR-8 ovarian
# A549 NSCLC = test system: A549 NSCLC
# EKVX NSCLC = test system: EKVX NSCLC
# OVCAR-4 ovarian = test system: OVCAR-4 ovarian
# SNB-75 CNS = test system: SNB-75 CNS
# SF-295 CNS = test system: SF-295 CNS
# UACC-62 melanoma = test system: UACC-62 melanoma
# SK-OV-3 ovarian = test system: SK-OV-3 ovarian
# HS 578T breast = test system: HS 578T breast
# SW-620 colon = test system: SW-620 colon
# BT-549 breast = test system: BT-549 breast
# SK-MEL-28 melanoma = test system: SK-MEL-28 melanoma
# MDA-MB-435 = test system: MDA-MB-435
# NCI-H522 lung = test system: NCI-H522 lung
# OVCAR-3 ovarian = test system: OVCAR-3 ovarian
# SF-268 CNS = test system: SF-268 CNS
# SN12C renal = test system: SN12C renal
# T-47D breast = test system: T-47D breast
# KM12 colon = test system: KM12 colon
# CCRF-CEM leukemia = test system: CCRF-CEM leukemia
# IGROV1 ovarian = test system: IGROV1 ovarian
# MALME-3M melanoma = test system: MALME-3M melanoma
# U251 CNS = test system: U251 CNS
# DU-145 prostate = test system: DU-145 prostate
# MDA-MB-231 breast = test system: MDA-MB-231 breast
# A498 renal = test system: A498 renal
# HL-60(TB) leukemia = test system: HL-60(TB) leukemia
# M14 melanoma = test system: M14 melanoma
# OVCAR-5 ovarian = test system: OVCAR-5 ovarian
# CAKI-1 renal = test system: CAKI-1 renal
# UO-31 renal = test system: UO-31 renal
# RPMI-8226 leukemia = test system: RPMI-8226 leukemia
# COLO 205 colon = test system: COLO 205 colon
# MDA-N = test system: MDA-N
# ACHN renal = test system: ACHN renal
# RXF 393 renal = test system: RXF 393 renal
# HOP-62 NSCLC = test system: HOP-62 NSCLC
# NCI-H23 lung = test system: NCI-H23 lung
# NCI-H226 lung = test system: NCI-H226 lung
# PC-3 prostate = test system: PC-3 prostate
# NCI-H460 lung = test system: NCI-H460 lung
# TK-10 renal = test system: TK-10 renal
# HCC-2998 colon = test system: HCC-2998 colon
structure (smiles),measurement,setting,value
C1=NCCNCCN=Cc2ccc(cc2)OCc2cccc(n2)COc2ccc1cc2,TGI,NCI/ADR-RES ovarian,> 100 µM
same,TGI,HOP-92 NSCLC,> 100 µM
same,TGI,UACC-257 melanoma,> 100 µM
same,TGI,MOLT-4 leukemia,> 100 µM
same,TGI,SR leukemia,> 100 µM
same,TGI,SK-MEL-2 melanoma,> 100 µM
same,TGI,HCT-15 colon,> 100 µM
same,TGI,SNB-19 CNS,> 100 µM
same,TGI,MCF7 breast,> 100 µM
same,TGI,HCT-116 colon,> 100 µM
same,TGI,SK-MEL-5 melanoma,> 100 µM
same,TGI,K-562 leukemia,> 100 µM
same,TGI,SF-539 CNS,> 100 µM
same,TGI,HT29 colon,> 100 µM
same,TGI,786-0 renal,> 100 µM
same,TGI,OVCAR-8 ovarian,> 100 µM
same,TGI,A549 NSCLC,> 100 µM
same,TGI,EKVX NSCLC,> 100 µM
same,TGI,OVCAR-4 ovarian,> 100 µM
same,TGI,SNB-75 CNS,> 100 µM
same,TGI,SF-295 CNS,> 100 µM
same,TGI,UACC-62 melanoma,> 100 µM
same,TGI,SK-OV-3 ovarian,> 100 µM
same,TGI,HS 578T breast,> 100 µM
same,TGI,SW-620 colon,> 100 µM
same,TGI,BT-549 breast,> 100 µM
same,TGI,SK-MEL-28 melanoma,> 100 µM
same,TGI,MDA-MB-435,> 100 µM
same,TGI,NCI-H522 lung,> 100 µM
same,TGI,OVCAR-3 ovarian,> 100 µM
same,TGI,SF-268 CNS,83.9 µM
same,TGI,SN12C renal,> 100 µM
same,TGI,T-47D breast,> 100 µM
same,TGI,KM12 colon,> 100 µM
same,TGI,CCRF-CEM leukemia,> 100 µM
same,TGI,IGROV1 ovarian,> 100 µM
same,TGI,MALME-3M melanoma,> 100 µM
same,TGI,U251 CNS,> 100 µM
same,TGI,DU-145 prostate,> 100 µM
same,TGI,MDA-MB-231 breast,> 100 µM
same,TGI,A498 renal,> 100 µM
same,TGI,HL-60(TB) leukemia,> 100 µM
same,TGI,M14 melanoma,> 100 µM
same,TGI,OVCAR-5 ovarian,> 100 µM
same,TGI,CAKI-1 renal,> 100 µM
same,TGI,UO-31 renal,> 100 µM
same,TGI,RPMI-8226 leukemia,> 100 µM
same,TGI,COLO 205 colon,> 100 µM
same,TGI,MDA-N,> 100 µM
same,TGI,ACHN renal,68.7 µM
same,TGI,RXF 393 renal,> 100 µM
same,TGI,HOP-62 NSCLC,52.9 µM
same,TGI,NCI-H23 lung,> 100 µM
same,TGI,NCI-H226 lung,> 100 µM
same,TGI,PC-3 prostate,> 100 µM
same,TGI,NCI-H460 lung,> 100 µM
C=CCOC(=O)/C(=C\c1ccc(OC)c(OC)c1)c1ccc(OC)c(OC)c1,TGI,NCI/ADR-RES ovarian,> 100 µM
same,TGI,HOP-92 NSCLC,> 100 µM
same,TGI,UACC-257 melanoma,> 100 µM
same,TGI,MOLT-4 leukemia,49.5 µM
same,TGI,SR leukemia,72.3 µM
same,TGI,SK-MEL-2 melanoma,> 100 µM
same,TGI,HCT-15 colon,> 100 µM
same,TGI,SNB-19 CNS,> 100 µM
same,TGI,MCF7 breast,> 100 µM
same,TGI,HCT-116 colon,> 100 µM
same,TGI,SK-MEL-5 melanoma,> 100 µM
same,TGI,K-562 leukemia,> 100 µM
same,TGI,SF-539 CNS,> 100 µM
same,TGI,HT29 colon,> 100 µM
same,TGI,786-0 renal,> 100 µM
same,TGI,OVCAR-8 ovarian,> 100 µM
same,TGI,A549 NSCLC,> 100 µM
same,TGI,EKVX NSCLC,> 100 µM
same,TGI,TK-10 renal,> 100 µM
same,TGI,SNB-75 CNS,36.3 µM
same,TGI,SF-295 CNS,> 100 µM
same,TGI,UACC-62 melanoma,> 100 µM
same,TGI,SK-OV-3 ovarian,> 100 µM
same,TGI,HS 578T breast,> 100 µM
same,TGI,SW-620 colon,> 100 µM
same,TGI,BT-549 breast,> 100 µM
same,TGI,SK-MEL-28 melanoma,> 100 µM
same,TGI,MDA-MB-435,> 100 µM
same,TGI,NCI-H522 lung,> 100 µM
same,TGI,OVCAR-3 ovarian,> 100 µM
same,TGI,SF-268 CNS,> 100 µM
same,TGI,SN12C renal,> 100 µM
same,TGI,T-47D breast,98.4 µM
same,TGI,KM12 colon,> 100 µM
same,TGI,CCRF-CEM leukemia,> 100 µM
same,TGI,IGROV1 ovarian,> 100 µM
same,TGI,MALME-3M melanoma,> 100 µM
same,TGI,HCC-2998 colon,> 100 µM
same,TGI,U251 CNS,> 100 µM
same,TGI,DU-145 prostate,> 100 µM
same,TGI,MDA-MB-231 breast,> 100 µM
same,TGI,A498 renal,> 100 µM
same,TGI,HL-60(TB) leukemia,40.3 µM
same,TGI,M14 melanoma,> 100 µM
same,TGI,OVCAR-5 ovarian,> 100 µM
same,TGI,CAKI-1 renal,> 100 µM
same,TGI,UO-31 renal,80 µM
same,TGI,RPMI-8226 leukemia,47.6 µM
same,TGI,COLO 205 colon,> 100 µM
same,TGI,MDA-N,> 100 µM
same,TGI,ACHN renal,> 100 µM
same,TGI,RXF 393 renal,99.5 µM
same,TGI,HOP-62 NSCLC,> 100 µM
same,TGI,NCI-H23 lung,> 100 µM
same,TGI,NCI-H226 lung,> 100 µM
same,TGI,PC-3 prostate,> 100 µM
same,TGI,NCI-H460 lung,> 100 µM

# Reference: PubChem BioAssay (NCI)
